According to patent US8057810B2, “Peptide substance revealing an immunogeroprotective effect, pharmaceutical composition on its base and the method of its application” (priority 2006, dated 2011):
Marks after values point to notes of the source that are not given here. Residues, ends and D or L forms follow the SMILES beside them.

Assays:
[1] = test system: thymus epithelium cells, line VTEC2.H/S; experiment: Proliferation of thymus epithelium cells in ageing cultures (3H-thymidin); assay type: cell-based, human; design: unit not given here
Experimental: The study was staged in vitro in the culture of thymus epithelium cells, which were represented by cells of suspension line VTEC2.H/S, obtained by transforming thymus epithelial cells of human embryo thymus with the material containing SV40 virus, and subsequent cloning of transformed cells.
Peptide H-Glu-Asp-Pro-OH was introduced into cell cultures in successive dilutions to ultimate concentrations of 2, 20 and 200 ng/ml. Proliferation of thymus epithelium cells subjected to 1, 4 and 7 passages was estimated using a radiometrical method, judging by the content of ^3H-thymidin.

[2] = test system: old rats' thymus explants; experiment: Development of thymus explants taken from old rats (area index); assay type: cell-based; details: 0.5 ng/ml; 3rd day of cultivating; rats aged 24 months
Experimental: The experiments were staged on 35 fragments of the thymus and 45 fragments of the spleen taken from rats aged 24 months. Nutritional medium for cultivation consisted of 35% Eagle's solution, 25% calf fetal serum, 35% Hanx solution, 5% chicken embryonic extract, with the addition of glucose (0.6%), insulin (0.5 U/ml), penicillin (100 U/ml), glutamin (2 mM). […]
Peptide H-Glu-Asp-Pro-OH was added into the experimental medium in concentrations of 0.5, 10 and 100 ng/ml.
Area index (AI)—the ratio of total explant area including the growth zone to the initial area of thymus or spleen fragment was used as a criterion for measuring the biological activity. AI values were expressed in percent, control AI value being taken as 100%.

[3] = test system: peritoneal macrophages; experiment: Production of lymphocyte activation factors (LAF) by peritoneal macrophages; assay type: cell-based, mice
From the text: The peculiarities of LAF production by peritoneal macrophages in young and ageing mice, as well as the influence of peptide H-Glu-Asp-Pro-OH on this index were studied. LAF activity of the macrophages was estimated judging by their ability to exert a comitogenic effect on the proliferation of thymocytes, stimulated by suboptimal lectin doses in vitro.
The same tendency to the change in LAF production by macrophages was observed under the effect of peptide H-Glu-Asp-Pro-OH in young mice, but not in the whole range of studied concentrations.

[4] = test system: elderly and old patients with age-related immune status decline; experiment: Clinical application in elderly and old patients exposed to small doses of ionizing irradiation; assay type: in vivo, human
Experimental: The efficacy of pharmaceutical composition, containing an effective amount of peptide H-Glu-Asp-Pro-OH as an active base, was studied in elderly and old patients, exposed to long-term ionizing irradiation in small doses.
The main group consisted of 38 elderly patients (18 men, 20 women), who were divided into 3 groups according to the intensity of immune status changes. […] Elderly and old patients with age-related decrease of the immune functions were injected with the pharmaceutical composition containing peptide H-Glu-Asp-Pro-OH in the dose of 10.0 μg in 1 ml of sterile 0.9% NaCl solution intramuscularly, daily, once a day for 10 days. 32 control group patients (14 men, 18 women) received only conventional treatment. The patients of both groups were from 62 to 83 years old. The efficacy of the pharmaceutical composition containing peptide H-Glu-Asp-Pro-OH was estimated judging by the dynamics of the patients' complaints and a set of objective indices, such as common blood and urine tests, immunologic study of peripheral blood (the number of T- and B-lymphocytes was estimated using the immunofluorescence method with monoclonal antibodies to CD3, CD4, CD8, CD20 differentiation lymphocytes antigens; content of immunoglobulins of different classes—using Mancini's method of radial immunodiffusion in the gel, T-lymphocytes functional activity—in lymphocyte migration inhibition reaction (LMIR) with Con A.

[5] = ageing mice 19-20 months, 0.5 to 500 ng/ml
[6] = patients 62-83 years, after treatment including the peptide, i.m. daily for 10 days

N[C@@H](CCC(=O)O)C(=O)N[C@@H](CC(=O)O)C(=O)N1CCC[C@H]1C(=O)O [Peptide H-Glu-Asp-Pro-OH, glutamyl-aspartyl-proline] (H-Glu-Asp-Pro-OH)
Proliferation of thymus epithelial cells (3H-thymidin content) ([1]; 2 ng/ml, 1st passage): 1480 ± 89
Proliferation of thymus epithelial cells (3H-thymidin content) ([1]; 2 ng/ml, 4th passage): 730 ± 54
Proliferation of thymus epithelial cells (3H-thymidin content) ([1]; 2 ng/ml, 7th passage): 705 ± 46
Proliferation of thymus epithelial cells (3H-thymidin content) ([1]; 20 ng/ml, 1st passage): 1585 ± 95
Proliferation of thymus epithelial cells (3H-thymidin content) ([1]; 20 ng/ml, 4th passage): 680 ± 48
Proliferation of thymus epithelial cells (3H-thymidin content) ([1]; 20 ng/ml, 7th passage): 680 ± 41
Proliferation of thymus epithelial cells (3H-thymidin content) ([1]; 200 ng/ml, 1st passage): 1530 ± 91
Proliferation of thymus epithelial cells (3H-thymidin content) ([1]; 200 ng/ml, 4th passage): 760 ± 58
Proliferation of thymus epithelial cells (3H-thymidin content) ([1]; 200 ng/ml, 7th passage): 795 ± 49
Area index (AI) in thymus explants, increase as compared to the control AI [2]: 24%
LAF production by non-stimulated peritoneal macrophages [3, 5]: induces the production of LAF
LAF production under the effect of LPS [3, 5]: increases the production of LAF
Change in LAF production by macrophages ([3]; young mice 2 months, not in the whole range of studied concentrations): same tendency
Patients in whom disordered immune system indices were normalized ([4]; composition in different doses with symptomatic means, 56% in the control group): 82%
Side effects in patients ([4]; elderly and old patients, composition in different doses): does not exert any side effects, complications or drug addiction
General state and asthenic syndrome after the treatment course ([4]; elderly people in the three main groups): significant improvement of the general state and reduction of the asthenic syndrome
CD3+, % [4, 6]: 55.7 ± 2.6 %
CD3+, ×10^9/l [4, 6]: 1.86 ± 0.05 ×10^9/l
CD4+, % [4, 6]: 34.6 ± 2.0 %
CD4+, ×10^9/l [4, 6]: 0.67 ± 0.09 ×10^9/l
CD4+/CD8+ [4, 6]: 1.4*#
CD8+, % [4, 6]: 24.9 ± 1.8%
CD8+, ×10^9/l [4, 6]: 0.46 ± 0.07 ×10^9/l
CD20+, % [4, 6]: 12.0 ± 0.7%
CD20+, ×10^9/l [4, 6]: 0.20 ± 0.01 ×10^9/l
IgA [4, 6]: 2.1 ± 0.3 g/L
IgG [4, 6]: 14.9 ± 1.7 g/L
IgM [4, 6]: 1.64 ± 0.06 g/L
LMIR (lymphocyte migration inhibition reaction with Con A) [4, 6]: 70.4 ± 4.9 %
Leukocytes [4, 6]: 5.6 ± 0.1 ×10^9/l
Lymphocytes, % [4, 6]: 35.1 ± 2.1%
Lymphocytes, ×10^9/l [4, 6]: 1.87 ± 0.05 ×10^9/l
